# Molecular target: T1, NCCcryo (Homo sapiens, UniProt P55017, E240A)
# T1 sequence (P55017 132-1021 E240A): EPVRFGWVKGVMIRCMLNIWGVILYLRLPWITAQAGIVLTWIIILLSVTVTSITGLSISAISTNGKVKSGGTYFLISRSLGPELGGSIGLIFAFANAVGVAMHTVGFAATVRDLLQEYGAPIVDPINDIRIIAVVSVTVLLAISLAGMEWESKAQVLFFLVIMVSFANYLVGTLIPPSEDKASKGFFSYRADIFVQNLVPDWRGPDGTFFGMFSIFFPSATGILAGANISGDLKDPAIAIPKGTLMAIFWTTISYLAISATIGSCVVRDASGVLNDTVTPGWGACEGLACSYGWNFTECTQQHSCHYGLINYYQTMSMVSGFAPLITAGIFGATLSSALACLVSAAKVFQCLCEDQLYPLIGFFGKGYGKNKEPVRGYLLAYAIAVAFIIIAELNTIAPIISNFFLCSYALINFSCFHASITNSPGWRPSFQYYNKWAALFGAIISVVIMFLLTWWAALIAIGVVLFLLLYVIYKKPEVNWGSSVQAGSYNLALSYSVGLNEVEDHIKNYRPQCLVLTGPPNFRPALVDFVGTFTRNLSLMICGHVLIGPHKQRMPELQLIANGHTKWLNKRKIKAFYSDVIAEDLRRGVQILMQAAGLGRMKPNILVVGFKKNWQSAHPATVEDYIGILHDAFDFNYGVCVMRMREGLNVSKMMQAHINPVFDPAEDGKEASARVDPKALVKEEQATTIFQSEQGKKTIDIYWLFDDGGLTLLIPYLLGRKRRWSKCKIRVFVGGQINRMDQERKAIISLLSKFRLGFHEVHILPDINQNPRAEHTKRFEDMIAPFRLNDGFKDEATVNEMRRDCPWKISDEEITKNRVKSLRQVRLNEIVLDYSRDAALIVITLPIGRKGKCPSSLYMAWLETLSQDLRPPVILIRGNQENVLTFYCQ
# T1 sequence (A0A0G2KTI4 1-202 E76K partner): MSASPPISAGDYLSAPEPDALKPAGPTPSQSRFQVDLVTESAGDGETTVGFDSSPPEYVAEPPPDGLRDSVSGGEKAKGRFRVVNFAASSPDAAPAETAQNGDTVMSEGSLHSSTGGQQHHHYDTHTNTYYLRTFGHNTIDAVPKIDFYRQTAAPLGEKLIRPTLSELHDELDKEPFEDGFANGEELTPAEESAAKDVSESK
# Experiment: 125I- uptake assay, NCCcryo construct
# Format: cell-based
# Conditions: thiazide-sensitive iodide uptake; hNCC with DrNKCC1 NTD and E240A
# Description: The NCCcryo construct consists of human NCC with its NTD (first 131 residues) replaced by that of zebrafish NKCC1 (first 202 residues), along with an E240A mutation and a Strep-tag II[69] at the N-terminus. The codon-optimized NCCcryo was cloned into a modified BacMam vector[70], which was then used for generating baculoviruses. HEK293S cells (3.0–3.5 × 10^6 cells per mL) were infected with the baculoviruses for NCCcryo, with sodium butyrate (10 mM) added 12–15 h afterwards, and the incubation temperature reduced to 30 °C. Two days after the addition of sodium butyrate, HEK293S cells were harvested.
# HEK293S cell lines, cultured in 293 Freestyle medium (Life Technologies; plus 10% fetal bovine serum), stably expressing hNCC and its variants were generated following published protocols. Cells were transfected using Lipofectamine 3000 (Invitrogen) with a pSBbi-RP-based plasmid containing hNCC or its variants and the SB100X vector. Puromycin (2 μg/mL; Gemini Bio-Products) was used for selection of stable cell lines.
# To prepare for the uptake experiment, cells were plated at 0.5 × 10^6 cells/well in 24-well plates one day in advance. […] Cells lysed using 1% sodium dodecyl sulfate (SDS) were analyzed by scintillation counting. […]
row,SMILES,IC50 [nM]
1,NS(=O)(=O)c1cc(C2(O)NC(=O)c3ccccc32)ccc1Cl (centres unmarked) [chlorthalidone],20
2,CC1Cc2ccccc2N1NC(=O)c1ccc(Cl)c(S(N)(=O)=O)c1 (centres unmarked) [indapamide],9.1
